In publication PMC6269071, “New Quinoxaline Derivatives as Potential MT1 and MT2 Receptor Ligands” (Molecules, 2012):

What was measured:
[1] = molecular target: T1, human melatonin MT2 receptor (Homo sapiens, UniProt P49286); test: 2-[125I]Iodomelatonin competitive binding, MT2; conditions: for Ki: 2-[125I]Iodomelatonin radioligand, membranes of HEK or CHO cells, mean of at least three experiments, read-out: MT2 Ki (µM) ± SEM
T1 construct: expressed in transfected cells; host or cells: HEK or CHO cells, stably transfected; membrane preparations
T1 sequence (P49286 1-362): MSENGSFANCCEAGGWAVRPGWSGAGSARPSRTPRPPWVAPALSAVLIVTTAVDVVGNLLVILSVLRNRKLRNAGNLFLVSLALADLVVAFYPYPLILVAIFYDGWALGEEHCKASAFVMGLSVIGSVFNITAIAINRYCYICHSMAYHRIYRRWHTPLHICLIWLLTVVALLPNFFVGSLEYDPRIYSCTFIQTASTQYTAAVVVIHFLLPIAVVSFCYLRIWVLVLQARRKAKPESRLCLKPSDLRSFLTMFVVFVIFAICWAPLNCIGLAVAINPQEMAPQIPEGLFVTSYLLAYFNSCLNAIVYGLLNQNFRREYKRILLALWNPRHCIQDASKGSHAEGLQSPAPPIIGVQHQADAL
Experimental: (§1) The binding affinity of the newly synthesized quinoxalines for MT1 and MT2 receptors was tested through competitive binding experiments using 2-[^125I]Iodomelatonin as radioligand.
(§2) Grown at confluence at 37 °C ([…]/5% CO2), they were harvested in PBS containing EDTA 2 mM and centrifuged at 1,000 g for 5 min (4 °C). The resulting pellet was suspended in Tris 5 mM (pH 7.5), containing EDTA 2 mM and homogenized using a Kinematica polytron. The homogenate was then centrifuged (95,000 g, 30 min, 4 °C) and the resulting pellet suspended in 75 mM Tris (pH 7.5), 12.5 mM MgCl2 and 2 mM EDTA. Aliquots of membrane preparations were stored at −80 °C until use.
(§3) 2-[^125I]Iodomelatonin binding assay conditions are essentially as previously described. Briefly, binding is initiated by the addition of membrane preparations from stable transfected HEK or CHO cells diluted in binding buffer (50 mM Tris-HCl buffer, pH 7.4, containing 5 mM MgCl2) to 2-[^125I]Iodomelatonin (25 or 200 pM for MT1 and MT2 receptors, respectively, expressed in HEK cells or 20 pM for MT1 and MT2 receptors expressed in CHO cells) and the tested drug. […] After 120 min of incubation at 37 °C, the reaction was stopped by rapid filtration through GF/B filters presoaked in 0.5% (v/v) polyethylenimine. Filters were washed three times with 1 mL of ice-cold 50 mM Tris-HCl buffer, pH 7.4. Data from dose-response curves (seven concentrations in duplicate) were analyzed using the program PRISM (Graph Pad Software Inc., San Diego, CA, USA) to yield IC50 (inhibitory concentration 50). Results were expressed as Ki using the Cheng and Prusoff equation: Ki = IC50/[1 + (L/KD)], where [L] is the concentration of radioligand used in the assay and KD, the dissociation constant of the radioligand characterizing the membrane preparation.

[2] = molecular target: T2, human melatonin MT1 receptor (Homo sapiens, UniProt P48039); test: 2-[125I]Iodomelatonin competitive binding, MT1; conditions: 2-[125I]Iodomelatonin radioligand; membranes of HEK or CHO cells; mean of at least three experiments; read-out: MT1 Ki (µM) ± SEM
T2 construct: expressed in transfected cells; host or cells: HEK or CHO cells, stably transfected; membrane preparations
T2 sequence (P48039 whole entry): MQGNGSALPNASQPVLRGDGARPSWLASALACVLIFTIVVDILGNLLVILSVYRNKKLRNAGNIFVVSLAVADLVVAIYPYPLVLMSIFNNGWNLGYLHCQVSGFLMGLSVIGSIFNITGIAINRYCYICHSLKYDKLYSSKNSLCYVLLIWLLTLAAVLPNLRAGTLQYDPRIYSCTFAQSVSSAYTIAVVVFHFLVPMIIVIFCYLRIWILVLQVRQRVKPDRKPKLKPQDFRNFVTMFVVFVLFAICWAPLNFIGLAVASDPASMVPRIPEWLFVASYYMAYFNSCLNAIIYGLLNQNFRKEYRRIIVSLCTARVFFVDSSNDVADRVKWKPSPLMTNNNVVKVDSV
Experimental: as §1, §2, §3

[3] = molecular target: T3, MT2 receptor (CHO-MT2 membranes) (Homo sapiens, UniProt P49286); test: [35S]GTPγS binding assay, MT2; format: biochemical; conditions: for functional profile at MT2 / EC50: [35S]GTPγS binding; for EC50: CHO membranes, read-out: MT2 EC50 ± SEM
T3 construct: expressed in transfected cells; host or cells: CHO cells, transfected; membranes
T3 sequence (P49286 1-362): T1 sequence (P49286 1-362)
Experimental: as §2
[^35S]GTPγS binding assay was performed according to published methodology. Briefly, membranes from transfected CHO cells expressing MT1 and MT2 receptor subtypes and compounds were diluted in binding buffer (20 mM HEPES, pH 7.4, 100 mM NaCl, 3 μM GDP, 3 mM MgCl2, and 20 μg/mL saponin). Incubation was started by the addition of 0.2 nM [^35S]GTPγS to membranes (20 μg/mL) and drugs, and further followed for 1h at room temperature.

Row | Ki [1] [µM] | Ki [2] [µM] | MT2/MT1 selectivity ratio ([1]; ratio of binding affinities MT1 vs MT2) | functional profile at MT2 [3] | EC50 [3] [µM] | Emax ([3]; read-out: MT2 Emax ± SEM (%)) [%] | SMILES
1 | 0.88 ± 0.3 | 2.98 ± 0.36 |  |  |  |  | COc1nc2ccccc2nc1CNC(C)=O [Compound 3a, N-(3-Methoxyquinoxalin-2-ylmethyl)-acetamide]
2 | 0.66 ± 0.01 | 2.6 ± 0.23 |  |  |  |  | CCC(=O)NCc1nc2ccccc2nc1OC [Compound 3b, N-(3-Methoxyquinoxalin-2-ylmethyl)-propionamide]
3 | 1.1 ± 0.03 | 0.75 ± 0.36 |  |  |  |  | CCCC(=O)NCc1nc2ccccc2nc1OC [Compound 3c, N-(3-Methoxyquinoxalin-2-ylmethyl)-butyramide]
4 | 0.47 ± 0.02 | 1.23 ± 0.32 |  |  |  |  | COc1nc2ccccc2nc1CNC(=O)C(C)C [Compound 3d, N-(3-Methoxyquinoxalin-2-ylmethyl)-isobutyramide]
5 | > 1000 | > 1000 |  |  |  |  | COc1nc2ccccc2nc1CNC(=O)c1ccccc1 [Compound 3e, N-(3-Methoxy-quinoxalin-2-ylmethyl)-benzamide]
6 | 0.4 ± 0.13 | > 1000 |  |  |  |  | CCNC(=O)NCc1nc2ccccc2nc1OC [Compound 3f, Ethyl-3-(3-methoxyquinoxalin-2-ylmethyl)urea]
7 | 0.44 | > 1000 |  |  |  |  | CCCNC(=O)NCc1nc2ccccc2nc1OC [Compound 3g, 1-(3-Methoxyquinoxalin-2-ylmethyl)-3-propylurea]
8 | > 1000 | > 1000 |  |  |  |  | COc1nc2ccccc2nc1CNC(=O)NC(C)C [Compound 3h, 1-Isopropyl-3-(3-methoxyquinoxalin-2-ylmethyl)urea]
9 | > 1000 | > 1000 |  |  |  |  | COc1nc2ccccc2nc1CNC(=O)Nc1ccccc1 [Compound 3i, 1-(3-Methoxyquinoxalin-2-ylmethyl)-3-phenyl-urea]
10 | 0.08 | 20 ± 1.82 | 250 | antagonist | > 10 |  | COc1nc2ccc(NC(C)=O)cc2nc1OC [Compound 6a, N-(2,3-Dimethoxyquinoxalin-6-yl)acetamide]
11 | 4.36 ± 1.22 | 17.6 ± 7.81 |  |  |  |  | CCC(=O)Nc1ccc2nc(OC)c(OC)nc2c1 [Compound 6b, N-(2,3-Dimethoxyquinoxalin-6-yl)propionamide]
12 | 1.35 ± 0.31 | 11.5 ± 2.8 |  | full agonist | 1.3 ± 0.26 | 84 ± 9.5 | CCCC(=O)Nc1ccc2nc(OC)c(OC)nc2c1 [Compound 6c, N-(2,3-Dimethoxyquinoxalin-6-yl)butyramide]
13 | 10.5 ± 2.96 | 3.4 ± 1.37 |  |  |  |  | COc1nc2ccc(NC(=O)C(C)C)cc2nc1OC [Compound 6d, N-(2,3-Dimethoxyquinoxalin-6-yl)isobutyramide]
14 | > 1000 | > 1000 |  |  |  |  | COc1nc2ccc(NC(=O)c3ccccc3)cc2nc1OC [Compound 6e, N-(2,3-Dimethoxyquinoxalin-6-yl)benzamide]
15 | 28.8 | 3.41 ± 1.89 |  |  |  |  | CCNC(=O)Nc1ccc2nc(OC)c(OC)nc2c1 [Compound 6f, 1-(2,3-Dimethoxyquinoxalin-6-yl)-3-ethylurea]
16 | 0.489 ± 0.07 | 1.63 ± 0.44 |  |  |  |  | CCCNC(=O)Nc1ccc2nc(OC)c(OC)nc2c1 [Compound 6g, 1-(2,3-Dimethoxyquinoxalin-6-yl)-3-propylurea]
17 | > 1000 | > 1000 |  |  |  |  | COc1nc2ccc(NC(=O)NC(C)C)cc2nc1OC [Compound 6h, 1-(2,3-Dimethoxyquinoxalin-6-yl)-3-isopropylurea]
18 | > 1000 | > 1000 |  |  |  |  | COc1nc2ccc(NC(=O)Nc3ccccc3)cc2nc1OC [Compound 6i, 1-(2,3-Dimethoxyquinoxalin-6-yl)-3-phenylurea]
19 | > 1000 | > 1000 |  |  |  |  | COc1ccc2ncc(CNC(C)=O)nc2c1 [Compound 10a, N-[(7-Methoxyquinoxalin-2-yl)methyl]acetamide]
20 | 0.34 ± 0.15 | > 1000 |  |  |  |  | CCC(=O)NCc1cnc2ccc(OC)cc2n1 [Compound 10b, N-[(7-Methoxyquinoxalin-2-yl)methyl]propionamide]
21 | 0.1 ± 0.01 | 0.21 ± 0.11 |  |  |  |  | CCCC(=O)NCc1cnc2ccc(OC)cc2n1 [Compound 10c, N-[(7-Methoxyquinoxalin-2-yl)methyl]butyramide]
22 | 0.16 | 0.32 ± 0.04 |  |  |  |  | COc1ccc2ncc(CNC(=O)C(C)C)nc2c1 [Compound 10d, N-[(7-Methoxyquinoxalin-2-yl)methyl]isobutyramide]
23 | > 1000 | > 1000 |  |  |  |  | COc1ccc2ncc(CNC(=O)c3ccccc3)nc2c1 [Compound 10e, N-[(7-Methoxyquinoxalin-2-yl)methyl]benzamide]
